Data reported in US20230192644A1, “PIPERIDINE-2,6-DIONES AS SMALL MOLECULE DEGRADERS OF HELIOS AND METHODS OF USE” (DANA-FARBER CANCER INSTITUTE, INC., priority 2020, published 2023).
Where two headings read alike, the source gives them in different places.

Tests used:
Type in all cases: cell-based
IKZF2 [1] = target: T1, IKZF2 (Homo sapiens, UniProt Q96SW2+Q9UKS7); assay: HiBit-IKZF2 degradation assay in Molt4 cells
T1 construct: knocked into the endogenous IKZF2 or IKZF1 locus of Molt4 cells; endogenous in cells; host or cells: Molt4 (CRISPR/Cas9 HiBit knock-in)
Protocol: (§1) The HiBit tag was knocked into the endogenous IKZF2 or IKZF1 locus of Molt4 cells to generate a HiBit-IKZF2 or HiBit-IKZF1 fusion proteins via CRISPR/Cas9 gene editing. Cells were then treated with a 12 point concentration curve of the indicated compounds, and luminescence (corresponding to Helios abundance) was detected after 6 hours using the Nano-Glo® HiBit Lytic Detection system (Promega™). The concentration necessary to achieve 50% degradation (DC50) was calculated using Prism (GraphPad).

IKZF1 [2] = target: T2, IKZF1 (Homo sapiens, UniProt Q13422+Q96SW2); assay: HiBit-IKZF1 degradation assay in Molt4 cells
T2 construct: knocked into the endogenous IKZF2 or IKZF1 locus of Molt4 cells; endogenous in cells; host or cells: Molt4 (CRISPR/Cas9 HiBit knock-in)
Protocol: as §1

IKZF2 [3] = assay: GFP-IKZF2 cellular degradation assay (eGFP fusion/mCherry reporter, Flip-In 293 cells); conditions: Flip-In 293 cells stably expressing IKZF2 GFP fusion with mCherry reporter, 5 h
Protocol: IKZF1A and IKZF2A were subcloned into mammalian pcDNA5/FRT Vector (Ampicillin and Hygromycin B resistant) modified to contain MCS-eGFP-P2A-mCherry. Stable cell lines expressing eGFP-protein fusion and mCherry reporter were generated using Flip-In 293 system. Plasmid (0.3 μg) and pOG44 (4.7 μg) DNA were preincubated in 100 μL of Opti-MEM™ I (Gibco™, Life Technologies™) media containing 0.05 mg/mL Lipofectamine™ 2000 (Invitrogen™) for 20 min and added to Flip-In 293 cells containing 1.9 mL of DMEM media (Gibco™, Life Technologies™) per well in a 6-well plate format (Falcon, 353046). Cells were propagated for 48 h and were then transferred into a 10 cm^2 plate (Corning, 430165) in DMEM media containing 50 μg/mL of Hygromycin B (REF 10687010, Invitrogen™) as a selection marker. Following 2-3 passage cycle, FACS (FACSAria™ II, BD) was used to enrich for cells expressing eGFP and mCherry.
(§2) Cells stably expressing the IKZF1A, or IKZF2A GFP fusions with mCherry reporter were seeded at 30-50% confluency in 384-well plates with 50 μL FluoroBrite™ DMEM media (Thermo Fisher Scientific™ A18967) containing 10% FBS per well a day before compound treatment. Compound titrations were dispensed using a D300e Digital Dispenser (HP), normalized to 0.5% DMSO, and incubated with cells for 5 hours.
(§3) The assay plate was imaged immediately using an Acumen High Content Imager (TTP Labtech) with 488 nm and 561 nm lasers in […] per well format. The resulting images were analyzed using CellProfiler (Carpenter et al., Genome Biol. 2006, 7:R100). A series of image analysis steps (‘image analysis pipeline’) was constructed. First, the red and green channels were aligned and cropped to target the middle of each well (to avoid analysis of heavily clumped cells at the edges), and a background illumination function was calculated for both red and green channels of each well individually and subtracted to correct for illumination variations across the 384-well plate from various sources of error. An additional step was then applied to the green channel to suppress the analysis of large auto fluorescent artifacts and enhance the analysis of cell specific fluorescence by way of selecting for objects under a given size, 30 A.U., and with a given shape, speckles. mCherry-positive cells were then identified in the red channel filtering for objects between 8-60 pixels in diameter and using intensity to distinguish between clumped objects. The green channel was then segmented into GFP positive and negative areas and objects were labeled as GFP positive if at least 40% of it overlapped with a GFP positive area. The fraction of GFP-positive cells/mCherry-positive cells in each well was then calculated, and the green and red images were rescaled for visualization. The concentrations that lead to half degradation at 5 h (DC50, 5h) were calculated using the nonlinear fit variable slope model (GraphPad Software).

IKZF1 [4] = target: T3, IKZF1 (Homo sapiens, UniProt Q13422); assay: GFP-IKZF1 cellular degradation assay (eGFP fusion/mCherry reporter, Flip-In 293 cells)
T3 construct: expressed in transfected cells
Protocol: IKZF1A and IKZF2A were subcloned into mammalian pcDNA5/FRT Vector (Ampicillin and Hygromycin B resistant) modified to contain MCS-eGFP-P2A-mCherry. […] Following 2-3 passage cycle, FACS (FACSAria™ II, BD) was used to enrich for cells expressing eGFP and mCherry.
as §2
as §3, with “The resulting images were analyzed using CellProfiler (Carpenter et al., Genome Biol. 2006, 7:R100).” left out

Helios = target: T4, Helios (Homo sapiens, UniProt Q96SW2+Q9UKS7); assay: Degradation in Jurkat cells (immunoblot); conditions: 4 hours, indicated concentrations
T4 construct: Immunoblots for Ikaros, Helios, and Actin from wildtype Jurkat cells; endogenous in cells; host or cells: wild-type Jurkat cells
Protocol: Cells were lysed in M-PER® buffer (Thermo Scientific) containing protease/phosphatase inhibitor cocktail (Roche). Protein concentration was measured using a BCA assay (Pierce™). Equivalent amounts of each sample were loaded on 4-12% Bis-Tris gels (Invitrogen™), transferred to nitrocellulose membranes, and immunoblotted with the indicated antibodies. IRDye®800-labeled goat anti-rabbit IgG and IRDye®680-labeled goat anti-mouse IgG (LI-COR®) secondary antibodies were purchased from LI-COR®, and membranes were detected on an Odyssey® detection system (LI-COR® Biosciences).
Immunoblots for Ikaros, Helios, and Actin from wildtype Jurkat cells treated with compound 36 or 65 for 4 hours at the indicated concentrations were generated (FIG. 1).

T4 sequence (Q9UKS7 whole entry): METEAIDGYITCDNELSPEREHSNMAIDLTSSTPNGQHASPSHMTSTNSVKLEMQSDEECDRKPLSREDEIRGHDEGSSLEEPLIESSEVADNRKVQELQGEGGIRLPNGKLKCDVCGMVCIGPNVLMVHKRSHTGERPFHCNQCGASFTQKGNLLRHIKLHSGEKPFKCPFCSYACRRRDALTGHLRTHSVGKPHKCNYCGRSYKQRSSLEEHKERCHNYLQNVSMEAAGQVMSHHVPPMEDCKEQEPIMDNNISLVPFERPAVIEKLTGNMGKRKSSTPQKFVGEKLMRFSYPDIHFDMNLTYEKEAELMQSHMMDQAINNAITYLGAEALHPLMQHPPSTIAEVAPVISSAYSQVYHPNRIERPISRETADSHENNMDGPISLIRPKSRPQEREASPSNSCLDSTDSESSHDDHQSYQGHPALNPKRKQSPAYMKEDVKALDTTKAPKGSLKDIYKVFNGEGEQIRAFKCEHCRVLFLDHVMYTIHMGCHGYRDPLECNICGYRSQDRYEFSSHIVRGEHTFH
T4 sequence (Q96SW2 whole entry): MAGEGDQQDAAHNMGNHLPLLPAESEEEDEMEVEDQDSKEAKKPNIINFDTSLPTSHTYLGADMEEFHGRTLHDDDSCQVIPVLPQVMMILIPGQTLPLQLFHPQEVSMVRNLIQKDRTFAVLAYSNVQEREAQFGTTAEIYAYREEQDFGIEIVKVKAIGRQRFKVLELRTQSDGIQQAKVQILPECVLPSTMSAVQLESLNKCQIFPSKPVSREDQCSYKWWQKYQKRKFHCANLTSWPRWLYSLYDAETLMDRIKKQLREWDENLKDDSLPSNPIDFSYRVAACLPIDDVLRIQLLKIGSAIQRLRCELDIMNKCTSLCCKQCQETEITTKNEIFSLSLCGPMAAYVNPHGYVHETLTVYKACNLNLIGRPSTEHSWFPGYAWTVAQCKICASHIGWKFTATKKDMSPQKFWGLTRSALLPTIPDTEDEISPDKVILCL
T4 sequence (Q16531 whole entry partner): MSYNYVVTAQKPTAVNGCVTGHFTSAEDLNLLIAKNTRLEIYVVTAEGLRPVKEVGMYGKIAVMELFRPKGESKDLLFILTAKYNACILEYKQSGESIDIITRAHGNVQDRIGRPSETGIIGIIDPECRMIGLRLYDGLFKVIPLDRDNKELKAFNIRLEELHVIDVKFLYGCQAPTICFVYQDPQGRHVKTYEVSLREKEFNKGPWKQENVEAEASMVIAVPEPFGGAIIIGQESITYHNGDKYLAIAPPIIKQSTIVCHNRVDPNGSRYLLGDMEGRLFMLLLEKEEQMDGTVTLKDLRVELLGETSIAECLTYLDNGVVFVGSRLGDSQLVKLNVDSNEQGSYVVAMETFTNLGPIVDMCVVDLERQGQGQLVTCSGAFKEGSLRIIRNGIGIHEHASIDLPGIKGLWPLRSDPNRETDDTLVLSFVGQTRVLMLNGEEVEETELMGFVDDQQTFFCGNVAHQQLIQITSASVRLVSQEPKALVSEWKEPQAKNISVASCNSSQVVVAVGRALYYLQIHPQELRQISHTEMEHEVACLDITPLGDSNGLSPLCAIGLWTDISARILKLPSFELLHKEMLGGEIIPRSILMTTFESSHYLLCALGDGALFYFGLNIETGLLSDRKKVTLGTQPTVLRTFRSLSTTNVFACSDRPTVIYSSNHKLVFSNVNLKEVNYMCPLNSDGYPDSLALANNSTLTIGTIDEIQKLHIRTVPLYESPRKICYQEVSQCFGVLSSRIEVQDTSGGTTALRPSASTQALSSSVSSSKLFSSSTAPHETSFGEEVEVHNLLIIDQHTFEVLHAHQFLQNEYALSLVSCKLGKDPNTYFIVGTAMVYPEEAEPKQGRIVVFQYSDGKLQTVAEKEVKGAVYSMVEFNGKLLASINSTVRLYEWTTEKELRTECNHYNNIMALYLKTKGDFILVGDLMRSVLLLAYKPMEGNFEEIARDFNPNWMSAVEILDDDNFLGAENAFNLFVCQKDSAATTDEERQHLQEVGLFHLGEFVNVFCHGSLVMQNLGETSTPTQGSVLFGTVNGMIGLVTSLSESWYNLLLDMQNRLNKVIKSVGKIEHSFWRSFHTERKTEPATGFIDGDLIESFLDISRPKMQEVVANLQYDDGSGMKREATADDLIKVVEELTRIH
T1 sequence (Q9UKS7 whole entry): as the sequence (Q9UKS7 whole entry) above
T1 sequence (Q96SW2 whole entry): as the sequence (Q96SW2 whole entry) above
T1 sequence (Q16531 whole entry partner): as the sequence (Q16531 whole entry partner) above
T3 sequence (Q13422 83-213 isoform Q13422-7 limits assumed): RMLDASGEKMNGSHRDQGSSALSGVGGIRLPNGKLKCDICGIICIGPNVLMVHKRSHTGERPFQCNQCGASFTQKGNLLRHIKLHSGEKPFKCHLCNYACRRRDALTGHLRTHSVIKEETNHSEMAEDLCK
T3 sequence (Q96SW2 whole entry partner, the tested form may be a part): as the sequence (Q96SW2 whole entry) above
T3 sequence (Q16531 whole entry partner, the tested form may be a part): as the sequence (Q16531 whole entry partner) above
T2 sequence (Q13422 whole entry): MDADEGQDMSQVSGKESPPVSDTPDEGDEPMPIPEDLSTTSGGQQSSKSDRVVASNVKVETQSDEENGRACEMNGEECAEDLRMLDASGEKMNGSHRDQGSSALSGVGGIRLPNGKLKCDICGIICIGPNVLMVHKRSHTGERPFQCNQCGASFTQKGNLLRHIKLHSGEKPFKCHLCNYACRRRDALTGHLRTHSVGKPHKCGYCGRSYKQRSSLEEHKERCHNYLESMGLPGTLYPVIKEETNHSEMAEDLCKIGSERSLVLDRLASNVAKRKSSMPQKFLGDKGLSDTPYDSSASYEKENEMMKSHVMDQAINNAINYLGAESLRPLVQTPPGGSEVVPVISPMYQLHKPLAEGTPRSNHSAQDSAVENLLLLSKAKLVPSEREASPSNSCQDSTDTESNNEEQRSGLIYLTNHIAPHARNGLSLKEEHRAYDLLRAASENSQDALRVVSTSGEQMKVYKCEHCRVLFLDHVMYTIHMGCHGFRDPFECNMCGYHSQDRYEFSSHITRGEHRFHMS
T2 sequence (Q96SW2 whole entry): as the sequence (Q96SW2 whole entry) above
T2 sequence (Q16531 whole entry partner): as the sequence (Q16531 whole entry partner) above

SMILES | DC50 (IKZF2 [1]; Molt4 cells with endogenous HiBit-IKZF2 knock-in, 6 hours, Nano-Glo HiBit luminescence; read-out: IKZF2 DC50) [nM] | DC50 (IKZF1 [2]; Molt4 cells with endogenous HiBit-IKZF1 knock-in, 6 hours, Nano-Glo HiBit luminescence; read-out: IKZF1 DC50) [nM] | DC50 (IKZF2 [3]) [nM] | DC50 (IKZF1 [4]; Flip-In 293 cells stably expressing IKZF1 GFP fusion with mCherry reporter, 5 h; read-out: GFP IKZF1 DC50) [nM] | Helios degradation (immunoblot, FIG. 1) (Helios) | DC50 (IKZF2 [1]; read-out: IKZF2 DC50; Molt4 cells with endogenous HiBit-IKZF2 knock-in, 6 hours, Nano-Glo HiBit luminescence) [nM] | DC50 (IKZF1 [2]; read-out: IKZF1 DC50; Molt4 cells with endogenous HiBit-IKZF1 knock-in, 6 hours, Nano-Glo HiBit luminescence) [nM] | DC50 (IKZF1 [4]; read-out: GFP IKZF1 DC50; Flip-In 293 cells stably expressing IKZF1 GFP fusion with mCherry reporter, 5 h) [nM]
CN(C)C(CC(=O)Nc1cccc(C(F)(F)F)c1)c1cccc(NC2=CC(=O)N(C3CCC(=O)NC3=O)C2=O)c1 (stereo not shown) [Compound 36, 3-(dimethylamino)-3-(3-((1-(2,6-dioxopiperidin-3-yl)-2,5-dioxo-2,5-dihydro-1H-pyrrol-3-yl)amino)phenyl)-N-(3-(trifluoromethyl)phenyl)propanamide] | 2.5 | 15 | 2.3 | 5.4 | Helios degradation | – | – | –
CC(C)(NCCc1cccc(C(F)(F)F)c1)c1cccc(NC2=CC(=O)N(C3CCC(=O)NC3=O)C2=O)c1 (stereo not shown) [Compound 65, 3-(2,5-dioxo-3-((3-(2-((3-(trifluoromethyl)phenethyl)amino)propan-2-yl)phenyl)amino)-2,5-dihydro-1H-pyrrol-1-yl)piperidine-2,6-dione] | – | – | 3.6 | – | Helios degradation | 17 | 18 | 5.1
